# Laboratory results as given in patent US11696913B2, “Prolonged ectoparasite-controlling agent for animal” (MITSUI CHEMICALS AGRO, INC., priority 2017, dated 2023).
# Like-named read-outs stand apart in the source and are kept apart here.
# What was measured:
# Ctenocephalides felis [1] = assay: Topical treatment in-vivo test with cat flea on rats; conditions: topical spot-on, 10 mg/kg
# Description: Topical Treatment In-Vivo Test with American Dog Tick Nymph and Cat Flea on Rats
# Type of study and overall study design: The method is a randomized non-blinded efficacy study in accordance with European animal welfare requirements. Rats (Rattus norvegicus) were randomized based on pre-treatment flea counts. The efficacy of treatment was determined by comparison of the flea and tick counts of different treatment groups versus the placebo-treated control group. The experimental unit was the individual study animal.
# Method and route of administration: The compound was applied in a suitable solvent and carrier (more specifically, added to the following mixture: 33.3% by weight propylene carbonate, […] N-methylpyrrolidone, 0.1% by weight BHA, 0.05% by weight BHT) considering the individual body weight as topical spot-on between the shoulder blades directly onto the skin.
# (§1) Experimental infestation: On the day of treatment and weekly thereafter, 30 ticks (D. variabilis nymphs) were released onto the back of each rat, and 30 fleas (C. felis) were released onto the back of each rat 24 h later.
# (§2) Tick and Flea counting: Rats were thoroughly examined and ticks and fleas were manually removed 48 h (+4 h) after tick infestation and 24 h after flea infestation. Live fleas and live attached engorged ticks were counted. In non-evident cases, engorgement status was evaluated by squeezing the tick on a filter paper to find traces of blood as sign for engorgement.
# Dermacentor variabilis [2] = assay: Systemic treatment in-vivo test with American dog tick nymph on rats; conditions: intraperitoneal injection; for inhibition in vivo at 2 mg/kg: Dermacentor variabilis, ip
# Description: (§3) Systemic Treatment In-Vivo Test with American Dog Tick Nymph and Cat Flea on Rats
# (§4) Type of study and overall study design: The method is a randomized non-blinded efficacy study in accordance with European animal welfare requirements. Rats (Rattus norvegicus) were randomized based on pre-treatment flea counts. The efficacy of treatment was determined by comparison of the flea and tick counts of different treatment groups versus the placebo-treated control group. The experimental unit was the individual study animal. Method and route of administration: The compound was applied in a suitable solvent and carrier (more specifically, added to glycerol formal; in case of poorly soluble compounds, a solvent mixture with up to 25% by volume of N-methyl pyrrolidone may be used.) considering the individual body weight as an intraperitoneal injection.
# as §1
# as §2, with “(±4” for “(+4”
# Ctenocephalides felis [3] = assay: Systemic treatment in-vivo test with cat flea on rats; conditions: intraperitoneal injection; for inhibition in vivo at 10 mg/kg: Ctenocephalides felis, ip
# Description: as §3, §4, §1
# as §2, with “(±4” for “(+4”
# Ctenocephalides felis [4] = assay: In vitro contact test with fleas; conditions: read-out: insecticidal activity; for pest or weed control at 0.2 µg/cm2, 0.2 µg/cm2: dose 0.2 μg/cm^2, dead or moribund fleas after 48 h; for pest or weed control at 1 µg/cm2, 1 µg/cm2: dose 1 μg/cm^2, dead or moribund fleas after 48 h; for pest or weed control at 0.04 µg/cm2, 0.04 µg/cm2: dose 0.04 μg/cm^2, dead or moribund fleas after 48 h
# How it was run: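 Adult male and female cat fleas (5-10 per tube) placed in glass tubes coated with compound from acetone solution (900 ppm gives 5 μg/cm^2), kept at room temperature and ambient humidity. After 48 h, motionless or uncoordinated fleas scored dead or moribund; activity expressed as % dead or moribund.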
# Rhipicephalus sanguineus = assay: In vitro contact test with adult hard ticks (Rhipicephalus sanguineus); conditions: read-out: acaricidal activity; for pest or weed control at 0.2 µg/cm2, 0.2 µg/cm2: dose 0.2 μg/cm^2, 48 h; for pest or weed control at 1 µg/cm2, 1 µg/cm2: dose 1 μg/cm^2, 48 h
# How it was run: (§5)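 Adult R. sanguineus, I. ricinus, D. variabilis or A. americanum nymphs exposed in glass vials coated with compound from acetone (900 ppm gives 5 μg/cm^2). Held 48 h at room temperature (R. sanguineus) or 21° C., 85% rel. hum.; then heated at 45-50° C. ≤5 min, motionless or uncoordinated ticks scored dead/moribund.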
# [5] = tested on: Rhipicephalus (Boophilus) microplus; assay: In vitro injection test with Rhipicephalus (Boophilus) microplus (BOOPMI Inj); conditions: 168 h, laid fertile eggs after 7 days, read-out: acaricidal activity; for pest or weed control at 32 ng: dose 0.032 μg/animal injected; for pest or weed control at 0.00016 mg: dose 0.16 μg/animal injected; for pest or weed control at 0.0008 mg: dose 0.8 μg/animal injected
# How it was run: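 Test substance in DMSO; 1 μl injected into abdomen of each of 5 engorged adult female ticks, then held at 28° C., 85% rel. hum. Activity scored after 7 days from laying of fertile eggs: 100% = no eggs or all infertile, 0% = all eggs fertile.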
# Ctenocephalides felis [6] = assay: Ctenocephalides felis in-vitro feeding test with fleas (CTECFE oral); conditions: 48 hours, read-out: insecticidal feeding activity; for pest or weed control at 0.032 ppm: dose 0.032 ppm in citrated cattle blood; for pest or weed control at 0.16 ppm: dose 0.16 ppm in citrated cattle blood; for pest or weed control at 0.8 ppm: dose 0.8 ppm in citrated cattle blood; for pest or weed control at 4 ppm: dose 4 ppm in citrated cattle blood
# How it was run: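 About 20 unfed adult cat fleas fed through parafilm on citrated cattle blood containing test substance (DMSO solution diluted in blood), held at about 37° C. Kill rate scored after 48 hours, 100% meaning all fleas dead.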
# Spodoptera litura = assay: Insecticidal testing against common cutworm; type: in vivo; conditions: foliar, 144 h, concentration 100 ppm, cabbage leaf dip, second-stage larvae, after 6 days, read-out: pesticidal rate
# Excerpt: Insecticidal Testing Against Common Cutworm (Spodoptera litura)
# Plutella xylostella = assay: Insecticidal testing against diamondback moth; type: in vivo; conditions: foliar, 144 h, concentration 100 ppm, cabbage leaf dip, third-stage larvae, after 6 days, read-out: pesticidal rate
# Excerpt: Insecticidal Testing Against Diamondback Moth (Plutella xylostella)
# Laodelphax striatellus = assay: Insecticidal testing against small brown planthopper; type: in vivo; conditions: 144 h, concentration 100 ppm, sprayed rice seedlings, after 6 days, read-out: pesticidal rate
# How it was run: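 Acetone solution of compound at a set concentration sprayed onto rice seedlings, air-dried, then exposed to 10 planthoppers (one group). Held at 25° C; survival rate recorded after 6 days.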
# Dermacentor variabilis [7] = assay: In vitro contact test with adult hard ticks (Dermacentor variabilis); conditions: read-out: acaricidal activity; for pest or weed control at 0.2 µg/cm2, 0.2 µg/cm2: dose 0.2 μg/cm^2, 48 h; for pest or weed control at 1 µg/cm2, 1 µg/cm2: dose 1 μg/cm^2, 48 h
# How it was run: as §5
# Ixodes ricinus = assay: In vitro contact test with adult hard ticks (Ixodes ricinus); conditions: read-out: acaricidal activity; for pest or weed control at 5 µg/cm2, 5 µg/cm2: dose 5 μg/cm^2, 48 h
# How it was run: as §5
# Amblyomma americanum = assay: In vitro contact test with hard ticks (Amblyomma americanum nymphs); conditions: dose 1 μg/cm^2, 48 h, read-out: acaricidal activity
# How it was run: as §5
# [8] = 10 mg/kg, SD 2, read-out: Geometric mean percent reduction in live flea (Ctenocephalides felis) counts compared to untreated control rats
# [9] = 10 mg/kg, SD 9, read-out: Geometric mean percent reduction in live flea (Ctenocephalides felis) counts compared to untreated control rats
# [10] = 10 mg/kg, SD 16, read-out: Geometric mean percent reduction in live flea (Ctenocephalides felis) counts compared to untreated control rats
# [11] = 10 mg/kg, SD 23, read-out: Geometric mean percent reduction in live flea (Ctenocephalides felis) counts compared to untreated control rats
Compound,"pest or weed control at 0.2 µg/cm2, 0.2 µg/cm2 (Ctenocephalides felis [4]) [%]","pest or weed control at 1 µg/cm2, 1 µg/cm2 (Ctenocephalides felis [4]) [%]","pest or weed control at 0.2 µg/cm2, 0.2 µg/cm2 (Rhipicephalus sanguineus) [%]","pest or weed control at 1 µg/cm2, 1 µg/cm2 (Rhipicephalus sanguineus) [%]",pest or weed control at 32 ng [5] [%],pest or weed control at 0.00016 mg [5] [%],pest or weed control at 0.0008 mg [5] [%],pest or weed control at 0.032 ppm (Ctenocephalides felis [6]) [%],pest or weed control at 0.16 ppm (Ctenocephalides felis [6]) [%],pest or weed control at 0.8 ppm (Ctenocephalides felis [6]) [%],pest or weed control at 4 ppm (Ctenocephalides felis [6]) [%],inhibition in vivo at 10 mg/kg (Ctenocephalides felis [3]; [8]) [%],inhibition in vivo at 10 mg/kg (Ctenocephalides felis [3]; [9]) [%],inhibition in vivo at 10 mg/kg (Ctenocephalides felis [3]; [10]) [%],inhibition in vivo at 10 mg/kg (Ctenocephalides felis [3]; [11]) [%],pest or weed control at 100 ppm (Spodoptera litura) [%],pest or weed control at 100 ppm (Plutella xylostella) [%],pest or weed control at 100 ppm (Laodelphax striatellus) [%],"pest or weed control at 0.04 µg/cm2, 0.04 µg/cm2 (Ctenocephalides felis [4]) [%]","pest or weed control at 0.2 µg/cm2, 0.2 µg/cm2 (Dermacentor variabilis [7]) [%]",also measured
"O=C(CNC(=O)c1ccc(C2=NOC(c3cc(Cl)cc(C(F)(F)F)c3)(C(F)(F)F)C2)c2ccccc12)NCC(F)(F)F (stereo not drawn) [Afoxolaner, afoxolaner, reference compound]",–,–,–,–,–,–,–,–,–,–,–,–,–,–,–,–,–,–,–,–,"Geometric mean percent reduction in live flea (Ctenocephalides felis) counts compared to untreated control rats (Ctenocephalides felis [1]; SD 2): 100%; Geometric mean percent reduction in live flea (Ctenocephalides felis) counts compared to untreated control rats (Ctenocephalides felis [1]; SD 9): 99%; Geometric mean percent reduction in live flea (Ctenocephalides felis) counts compared to untreated control rats (Ctenocephalides felis [1]; SD 16): 51%; Geometric mean percent reduction in live flea (Ctenocephalides felis) counts compared to untreated control rats (Ctenocephalides felis [1]; SD 23): 16%; Geometric mean percent reduction in live tick (Dermacentor variabilis) counts compared to untreated control rats (Dermacentor variabilis [2]; 2 mg/kg, SD 2): 86%; Geometric mean percent reduction in live tick (Dermacentor variabilis) counts compared to untreated control rats (Dermacentor variabilis [2]; 2 mg/kg, SD 9): 53%; Geometric mean percent reduction in live tick (Dermacentor variabilis) counts compared to untreated control rats (Dermacentor variabilis [2]; 2 mg/kg, SD 16): 5%; Geometric mean percent reduction in live tick (Dermacentor variabilis) counts compared to untreated control rats (Dermacentor variabilis [2]; 10 mg/kg, SD 2): 100%; Geometric mean percent reduction in live tick (Dermacentor variabilis) counts compared to untreated control rats (Dermacentor variabilis [2]; 10 mg/kg, SD 9): 10%; Geometric mean percent reduction in live tick (Dermacentor variabilis) counts compared to untreated control rats (Dermacentor variabilis [2]; 10 mg/kg, SD 16): 78%; Geometric mean percent reduction in live tick (Dermacentor variabilis) counts compared to untreated control rats (Dermacentor variabilis [2]; 10 mg/kg, SD 23): 0%; Geometric mean percent reduction in live flea (Ctenocephalides felis) counts compared to untreated control rats (Ctenocephalides felis [3]; 2 mg/kg, SD 2): 69%; Geometric mean percent reduction in live flea (Ctenocephalides felis) counts compared to untreated control rats (Ctenocephalides felis [3]; 2 mg/kg, SD 9): 20%; Geometric mean percent reduction in live flea (Ctenocephalides felis) counts compared to untreated control rats (Ctenocephalides felis [3]; 2 mg/kg, SD 16): 48%; Geometric mean percent reduction in live flea (Ctenocephalides felis) counts compared to untreated control rats (Ctenocephalides felis [3]; 10 mg/kg, SD 2): 100%; Geometric mean percent reduction in live flea (Ctenocephalides felis) counts compared to untreated control rats (Ctenocephalides felis [3]; 10 mg/kg, SD 9): 97%; Geometric mean percent reduction in live flea (Ctenocephalides felis) counts compared to untreated control rats (Ctenocephalides felis [3]; 10 mg/kg, SD 16): 60%; Geometric mean percent reduction in live flea (Ctenocephalides felis) counts compared to untreated control rats (Ctenocephalides felis [3]; 10 mg/kg, SD 23): 0%"
"CN(C(=O)c1ccc(F)cc1)c1cccc(C(=O)Nc2c(I)cc(C(F)(C(F)(F)F)C(F)(F)F)cc2S(=O)(=O)C(F)(F)F)c1F [Compound 70, 2-fluoro-3-(4-fluoro-N-methylbenzamido)-N-(2-iodo-4-(perfluoropropan-2-yl)-6-((trifluoromethyl)sulfonyl)phenyl)benzamide]",95,95,90,90,100,100,100,95,95,95,95,99,100,99,49,≥ 70,≥ 70,≥ 70,–,–,"inhibition in vivo at 10 mg/kg (Ctenocephalides felis [3]; 10 mg/kg, SD 30, read-out: Geometric mean percent reduction in live flea (Ctenocephalides felis) counts compared to untreated control rats): 7%"
CN(C(=O)c1ccc(F)cc1)c1cccc(C(=O)Nc2c(I)cc(C(F)(C(F)(F)F)C(F)(F)F)cc2OC(F)F)c1F [Compound 90],95,95,90,90,100,100,100,95,95,95,95,–,–,–,–,≥ 70,≥ 70,≥ 70,95,90,"pest or weed control at 1 µg/cm2, 1 µg/cm2 (Dermacentor variabilis [7]): 90%; pest or weed control at 1 µg/cm2, 1 µg/cm2 (Ixodes ricinus; dose 1 μg/cm^2, 48 h): 90%; pest or weed control at 5 µg/cm2, 5 µg/cm2 (Ixodes ricinus): 90%; pest or weed control at 6.4 ng ([5]; dose 0.0064 μg/animal injected): 100%; inhibition in vivo at 2 mg/kg (Dermacentor variabilis [2]; 2 mg/kg, SD 2, read-out: Geometric mean percent reduction in live tick (Dermacentor variabilis) counts compared to untreated control rats): 100%; inhibition in vivo at 2 mg/kg (Dermacentor variabilis [2]; 2 mg/kg, SD 9, read-out: Geometric mean percent reduction in live tick (Dermacentor variabilis) counts compared to untreated control rats): 83%; inhibition in vivo at 2 mg/kg (Dermacentor variabilis [2]; 2 mg/kg, SD 16, read-out: Geometric mean percent reduction in live tick (Dermacentor variabilis) counts compared to untreated control rats): 29%"
CN(C(=O)c1ccc(F)cc1)c1cccc(C(=O)Nc2c(Br)cc(C(F)(C(F)(F)F)C(F)(F)C(F)(F)F)cc2C(F)(F)F)c1F (stereo not drawn) [Compound 93],95,95,–,–,100,100,100,95,95,95,95,100,97,68,14,≥ 70,≥ 70,≥ 70,95,90,"pest or weed control at 1 µg/cm2, 1 µg/cm2 (Amblyomma americanum): 90%; pest or weed control at 1 µg/cm2, 1 µg/cm2 (Dermacentor variabilis [7]): 90%; pest or weed control at 5 µg/cm2, 5 µg/cm2 (Ixodes ricinus): 90%"
